Measured values published in patent publication US20070093511A1, “Anhydrous Crystal Form of Valaciclovir Hydrochloride” (priority 2001, published 2007).
Counter-ions that a name gives are not always drawn.

Experiments:
[1] = compared with acyclovir; cited from earlier work
[2] = Thermogravimetric analysis (TGA); assay type: physicochemical; details: from 182-310° C., scan rate 10° C. per minute, associated with melting/decomposition
Procedure: Thermogravimetric analysis was carried out on a Perkin-Elmer Pyris-1 TGA system. Scan rate of 10° C. per minute. Sample size 3.757 mg. The TGA trace is provided at FIG. 6. Weight loss from 182-310° C.=42.97% w/w associated with melting/decomposition

[3] = Stability and hygroscopicity of the crystal form (stated, no method); assay type: physicochemical; details: stated as advantage
[4] = Water content by Karl Fischer titration; assay type: physicochemical; details: Example 11 analysis
Procedure: The water of hydration content is measured by the Karl Fischer method which is well known in the art and is described in the 1990 US Pharmacopoeia at pages 1619-1621, and the European Pharmacopoeia, second edition (1992) part 2, sixteenth fascicule at v. 3.5-6.1. Water content (by Karl Fisher titration): 0.61% w/w

Row | SMILES | Bioavailability [1] | Weight loss [2] [% w/w] | Hygroscopicity [3] | Stability of crystal form [3] | Water content (by Karl Fisher titration) [4] [% w/w]
1 | CC(C)[C@H](N)C(=O)OCCOCn1cnc2c(=O)[nH]c(N)nc21 [valaciclovir] | much improved bioavailability |  |  |  | 
2 | CC(C)[C@H](N)C(=O)OCCOCn1cnc2c(=O)[nH]c(N)nc21 [Form 2 Valaciclovir Hydrochloride, valaciclovir hydrochloride] |  | 42.97 | essentially non-hygroscopic | stable | 0.61
